Patent publication US7923230B2, “Neurodegenerative protein aggregation inhibition methods and compounds” (The Board of Trustees of the Leland Stanford Junior …, priority 2003, dated 2011)

What was measured:
[1] = molecular target: T1, FKBP12 (Homo sapiens, UniProt P62942); experiment: Surface plasmon resonance, binding to immobilized FKBP12; conditions: SPR
T1 construct: made in house
Procedure: (§1) Surface Plasmon Resonance. Amide coupling was used to generate a carboxymethyldextran (CMS; BIAcore, Uppsala, Sweden) sensor chip bearing a mockimmobilized surface on flow chamber 1 (Fc1), 950 RU of Aβ(1-40) (SEQ ID NO: 3) (AnaSpec, San Jose, Calif.) on Fc2, and 2800 RU of bacterially-expressed recombinant FKBP12 on Fc3. The regeneration conditions were as follows: for removing analyte from Aβ surfaces (4 M guanidine HCl, 10 mM Tris buffer pH 8.0) and for removing analyte from the FKBP surface (750 mM NaCl, 250 mM NaOH). To calculate KD1 and KD2 (±SEM) for Aβ binding (in part C), the control signal was subtracted and data was fit according to the method of Cairo et al. (Biochemistry 41, 8620-8629 (2002). In each case, eight concentrations of analyte distributed around the KD were injected in duplicate in the running buffer (HBS-EP; BIAcore). Congo red is not uniquely specific for Aβ and, consistent with this, it also binds FKBP, but at a KD 20-fold higher than SLF-CR.

[2] = molecular target: T2, Aβ(1-42) (Homo sapiens, UniProt P05067); experiment: Light scattering (turbidity) of Aβ(1-42) fibrillogenesis; assay type: biochemical
T2 construct: purchased AnaSpec, San Jose, Calif; host or cells: synthetic peptide
T2 sequence (P05067 672-713): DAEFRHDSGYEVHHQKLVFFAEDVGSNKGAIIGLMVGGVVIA
Procedure: Light Scattering. Fresh A13(1-42) (Anaspec, San Jose, Calif.) (SEQ ID NO: 2) was prepared by resuspending the peptide in […] pH 9.5 to 10, sonicating for 5 minutes, and passing the resulting solutions through a 10 kDa filter (YM-10; Millipore, Bedford, Mass.) (31). Stock solutions (100 μM in 2 mM NaOH) were stored at −80° C. and diluted to 25 uM with PBS pH 7.2 to initiate fibrillogenesis. Identical methods were used to prepare the Aβ(1-42) (SEQ ID NO: 2) solutions utilized for TEM, AFM, MTT, Tunel and thioflavin T experiments. Turbidity was measured at 30° C. with orbital shaking in half area, nonbinding surface 96-well plates (Corning) on a TECAN GENios plate reader. The total volume was 50 uL and the concentration of FKBP was 1 uM. The results are representative of two independent experiments each performed in triplicate.

[3] = molecular target: T2, Aβ(1-42); experiment: Thioflavin T fluorescence assay of Aβ aggregation; assay type: biochemical; conditions: highest drug concentrations
Procedure: Fibrillization Procedure. Purified amyloid beta (1-42) (SEQ ID NO: 2) was purchased from AnaSpec and used without further purification. Fibrillization conditions are based on those previously described by Gordon and Meredith (Gordon, D. J. and Meredith, S. C. (2003) Biochemistry 42:475-485). Briefly, peptide was dissolved in PBS to a final concentration of 100 uM. To this solution, was added either FKBP12 (to a final concentration of 1 uM) or an equivalent volume of buffer alone (100 mM NaCl, 10 mM Tris-HCl pH 7.0). Additionally, either agent (dissolved in DMF) or DMF alone was added. These mixtures were placed at room temperature for at least 4 days without disruption. Thioflavin T assay. […] The mixture was vortexed briefly and the fluorescence emission maximum measured. For the dose dependence experiment, the emission wavelength was recorded at 490 nm. […] Turbidity was measured at 30° C. with orbital shaking in half area, nonbinding surface 96-well plates (Corning) on a TECAN GENios plate reader. […] Fluorescence was measured on a SpectraMax Gemini (Molecular Devices, Sunnyvale, Calif.), using an excitation wavelength of 446 nm (±5 nm) and an emission of 490 nm (±5 nm). The data was fit to sigmoidal curves using DeltaGraph (DeltaPoint, Inc) and the IC50 for each treatment recorded. […] A linear relationship between thioflavin T fluorescence and percent aggregation was used for simplicity.

[4] = molecular target: T2, Aβ(1-42); experiment: Transmission electron microscopy of Aβ fibrils; assay type: biochemical; conditions: for size or abundance of Aβ fibrils (TEM): 1 uM drug, 1 μM FKBP where present
Procedure: Transmission Electron Microscopy (TEM). Electron microscopy was performed essentially as previously described (Gordon, D. J. and Meredith, S. C. (2003) Biochemistry 42:475-485). Briefly, solutions subjected to the fibrillization conditions described above were applied to Formvar coated 400-mesh glow-discharged copper grids and contrasted with 1% uranyl acetate solution. Grids were analyzed at 80 kV and a magnification of 100,000×. Transmission Electron Microscopy. TEM was conducted using 300 mesh formvar-coated copper grids and 1% uranyl acetate stain on a JEOL TEM1230 and imaged with a Gatan 967 slow-scan CCD at 80 kV. Samples were incubated for 4 days at 22° C. in PBS pH 7.2 containing 25 uM Aβ(1-42) (SEQ ID NO: 2), 1 μM FKBP and 1 uM drug, where appropriate. The protocol used to prepare Aβ can influence fibrillogenesis and the reproducibility of the assays. Therefore, it can be useful to examine Aβ aggregation under a variety of conditions. In addition to the hydroxide method used above, stock solutions of Aβ were also prepared using a trifluoroacetic acid (TFA) protocol (Crystal, et al., J. Neurochem. 86, 1359-1368 (2003). TEM on samples originated from these stock solutions yielded similar results, although the typical size of the fibrils was considerably shorter.

[5] = system: Rat hippocampal neurons; experiment: MTT cell viability assay, neurons exposed to pre-treated Aβ(1-42); assay type: cell-based; conditions: high molar concentrations of Aβ; SLF-Benz-CR at 100 nM
Procedure: Cell Viability Assay. Rat hippocampal (E19.5 and P0) neurons were prepared as previously described (Graef, et al., Nature 401, 703-708 (1999). Fresh Aβ(1-42) (100 uM) (SEQ ID NO: 2) was prepared under basic conditions and incubated with inhibitors for two days at 22° C. in PBS pH 7.2 and then diluted 1:4 with culture media and applied to neurons. MTT assays were conducted as per manufacturer's specifications after two additional days of incubation at 37° C. and 5% CO2. The inhibitor concentrations are the in vitro incubation values.

[6] = system: Rat hippocampal neurons; experiment: Tunel staining / immunofluorescence microscopy of neurons exposed to Aβ; assay type: cell-based; conditions: for Tunel positive cells / Aβ toxicity: Aβ 25 uM, drug and FKBP 1 uM, incubated with Aβ prior to addition
Procedure: Immunofluorescence Microscopy. Rat hippocampal neurons (P0) were cultured 10 days on Matrigel-coated glass coverslips (Deckgläser, Germany) in 24-well plates (Corning) at 37° C. and 5% CO2. Aβ solutions were prepared and applied as above. The final concentration of Aβ was 25 uM and drug and FKBP were present at 1 uM. Following a two-day incubation, cells were prepared for microscopy as described (R. Kayed, et al., Science 300, 486-489 (2003).

[7] = molecular target: T3, Aβ(1-40) (Homo sapiens, UniProt P05067); experiment: Surface plasmon resonance, binding to immobilized Aβ(1-40)
T3 construct: purchased AnaSpec, San Jose, Calif; host or cells: synthetic peptide
T3 sequence (P05067 672-711): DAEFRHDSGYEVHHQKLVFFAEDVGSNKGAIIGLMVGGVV
Procedure: as §1

[8] = system: Aβ(1-42); experiment: Atomic force microscopy of Aβ aggregates; assay type: biochemical; conditions: samples containing Aβ(1-42) and FKBP
Procedure: Atomic Force Microscopy. Samples for AFM were prepared as for TEM, above, applied to a clean silicon surface, washed twice with dH2O, dried, and imaged at a scan rate of 1 Hz using a silicon probe (TESP) on an AFM Nanoscope Dimension 3000 (Digital Instruments) in Tapping Mode (C. Goldsbury, et al, J. Mol. Biol. 285, 33-39 (1999). The dimensions of the globular aggregates in the samples treated with SLF-CR/FKBP were approximated using NIH Image.

T1 sequence (P62942 whole entry): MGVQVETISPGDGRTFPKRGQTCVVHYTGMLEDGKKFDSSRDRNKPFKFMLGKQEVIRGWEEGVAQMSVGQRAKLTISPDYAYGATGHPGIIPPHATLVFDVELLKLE

Compound	effect on Aβ aggregation / turbidity [2]	size or abundance of Aβ fibrils (TEM) [4]	Tunel positive cells / Aβ toxicity [6]	binding to immobilized FKBP [1]	also measured
Nc1c(/N=N/c2ccc(-c3ccc(/N=N/c4cc(S(=O)(=O)O)c5ccccc5c4N)cc3)cc2)cc(S(=O)(=O)O)c2ccccc12 [CR, Congo red, reference compound]	modest inhibitor of turbidity	ineffective	failed to substantially reduce the number of Tunel positive cells	–	KD for FKBP, fold higher than SLF-CR [1]: 20 fold; thioflavin T fluorescence [3]: failed to fully block thioflavin T fluorescence; rescue of neurons [5]: unable to rescue
CCC(C)(C)C(=O)C(=O)N1CCCCC1C(=O)OC(CCc1ccc(OC)c(OC)c1)c1cccc(OCC(=O)Nc2c(N=Nc3ccc(-c4ccc(N=Nc5cc(S(=O)(=O)O)c6ccccc6c5N)cc4)cc3)cc(S(=O)(=O)O)c3ccccc23)c1 (stereo not drawn) [SLF-CR]	–	ineffective	failed to substantially reduce the number of Tunel positive cells	comparable affinity	affinity for Aβ ([7]; immobilized Aβ(1-40), SPR): not significantly different from that of CR; SPR response on immobilized amyloid ([7]; ternary complex test, compound alone or pre-incubated with FKBP): ~140 RUs; recruitment of FKBP to Aβ by electron microscopy [4]: confirmed; fibril formation (AFM) [8]: failed to form fibrils
CCC(C)(C)C(=O)C(=O)N1CCCC[C@H]1C(=O)O[C@H](CCc1ccc(OC)c(OC)c1)c1cccc(OCC(=O)O)c1 [SLF]	–	–	–	comparable affinity	–
CC[C@@]1(O)C(=O)OCc2c1cc1n(c2=O)Cc2cc3ccccc3nc2-1 [camptothecin, reference compound]	–	–	–	–	remaining cells positive for Tunel ([6]; after two days): 36%
FKBP: bacterially-expressed recombinant FKBP12, FK506-binding protein, prolyl isomerase	did not interfere with Aβ aggregation	does not influence the formation or architecture of Aβ fibrils	failed to substantially reduce the number of Tunel positive cells	–	–
